These results are taken from patent publication US20130059879A1, “Small Molecule Inhibitors of PFKFB3 and Glycolytic Flux and Their Methods of Use as Anti-Cancer Therapeutics” (UNIVERSITY OF LOUISVILLE RESEARCH FOUNDATION, INC., priority 2010, published 2013).

As usually defined, the IC50 is the concentration at which inhibition is half-maximal. Low readings indicate inhibition by little substance, high ones a need for much substance. One may read the Papp A→B as how fast a substance crosses the layer from the apical side. Lower therefore signals slow passage. The term Papp B→A denotes the apparent permeability from the basolateral to the apical side of a cell layer. The term Cmax denotes the highest concentration seen after dosing. A word on the Vd: it is the apparent volume that relates the amount in the body to the concentration in plasma or blood. One may read the AUC(0-inf) as the area under the concentration-time curve extrapolated to infinity. A high value points to high exposure.

For data set [1], the system named is HCT-116. The data set can be described thus: Cell proliferation, MTT assay, 72 hours. The class given is cell-based. The following applies: Homo sapiens, HCT-116, MTT assay. Here is the method: (§1) The ability of the compounds described herein to kill or inhibit the proliferation of cancer cells was measured using either the MTT assay, or the Alamar Blue assay, or the Cell Titer Glow® assay using 48 or 72 hours exposure. […] The procedures are briefly described below. Cells of the desired tumor cell line were plated at 2×10^5 cells/ml in 96 well plates. Twice the indicated concentrations of the compounds of the invention were added to cells the following day in an equal volume of media. 72 hours later, cells were lysed and subjected to ATP determination using the CellTiter Glo-Luminescent Cell Viability Assay kit (Promega, Madison, Wis.). Experiments were done in triplicate. When using the MTT assay or the Alamar blue assay, the experimental conditions are essentially similar; at the end of the incubation period, 20 microliters of the MTT solution is added per well and the samples are incubated for an additional four hours, rinsed, and the absorbance at 570 nm measured. […] Table 2 lists the IC50 values for the compounds of the invention in several cell lines including Jurkat, Calu-6, NCI-H82, U937, HCT-116, and MDA-MB-231 cancer cell lines.

Data set [2] has as its system Calu-6. The data set can be described thus: Cell proliferation, MTT assay, 72 hours. The data set is classed as cell-based. The following applies: Homo sapiens, Calu-6, MTT assay. The method, then:
as §1
In general terms: Tetrazolium assays rely on reduction of a dye to a coloured formazan, in cell work by metabolically active cells.

For data set [3], the system named is MDA-MB-231. In words: Cell proliferation, MTT assay, 72 hours. The following applies: Homo sapiens, MDA-MB-231, MTT assay. The class given is cell-based. The method, then: as §1
The subject of data set [4] is Hela. The data set can be described thus: Cell proliferation, MTT assay, 72 hours. The class given is cell-based. The following applies: Homo sapiens. Here is the method:
as §1

In data set [5] the test system is H209. In words: Cell proliferation, MTT assay, 72 hours. The data set is classed as cell-based. The following applies: Homo sapiens, NCI-H209. Here is the method:
as §1

Data set [6] concerns U937. The data set can be described thus: Cell proliferation, MTT assay, 72 hours. The class given is cell-based. The following applies: Homo sapiens, U-937. The method, then:
as §1

The test system of data set [7] is PC3. In words: Cell proliferation, MTT assay, 72 hours. The data set is classed as cell-based. The following applies: Homo sapiens, PC-3. Here is the method:
as §1

For data set [8], the system named is DU145. The data set can be described thus: Cell proliferation, MTT assay, 72 hours. The data set is classed as cell-based. The following applies: Homo sapiens, DU-145. Here is the method: as §1
Data set [9] concerns K562. The data set can be described thus: Cell proliferation, MTT assay, 72 hours. The data set is classed as cell-based. The following applies: Homo sapiens. Here is the method: as §1
The test system of data set [10] is Jurkat. In words: Cell proliferation, MTT assay, 72 hours. The class given is cell-based. The following applies: Homo sapiens. Here is the method:
as §1

The subject of data set [11] is Hep G2. In words: Cell proliferation, MTT assay, 72 hours. The class given is cell-based. The following applies: Homo sapiens, HepG2. The method, then: as §1
Data set [12] concerns HT-29. The data set can be described thus: Cell proliferation, MTT assay, 72 hours. The data set is classed as cell-based. The following applies: Homo sapiens, HT-29, MTT assay. Here is the method: as §1
For data set [13], the system named is NCI-H82. The data set can be described thus: Cell proliferation, MTT assay, 72 hours. The class given is cell-based. The following applies: Homo sapiens. Here is the method: as §1
A short description of data set [14]: Cell permeability in Caco2 monolayers. The following applies: human, Caco-2, Caco2 cells, pH 7.4. The data set is classed as in vitro ADME. From the text: (§2) The determination of the permeability in Caco2 or MDR1-MDCK cells is widely used when screening compounds to assess cell permeability, intestinal drug transport and predict absorption rates and to ascertain if a compound might be a Pgp substrate and have cross the blood brain barrier. […] Comparison of the apical to basal (A-B) and basal to apical (B-A) values show if a compound is actively effluxed out the cells and if it is a Pgp substrate. […] Briefly, cell permeability and transport mechanisms in Caco-2 and MDR1-MDCK monolayers experiments were performed in triplicate in the apical-to-basolateral and basolateral-to-apical direction using Transwell wells containing either Caco-2 or MDR1-MDCK monolayers. A modified Hanks buffer pH 7.4 was used in both reservoir and receiver wells with the addition of 1% BSA in the receiver side. Confluent monolayers were used and their integrity was verified using reference compounds (Atenolol as a low permeability reference compound and Propanolol as a high permeability reference compound). A sample in the basolateral and apical sides was taken after 2 hours and the concentration measured by LC/MS-MS.

The nature of data set [15]: Pharmacokinetics in rats. The class given is in vivo. The following applies: male Sprague Dawley rats. The method, then: (§3) The pharmacokinetic parameters for several compounds were determined in mice following IV (intravenous), IP (intraperitoneal), or PO (per os) administration, as well as in rats and dogs. A typical study design includes six Balbc male mice 7 to 8 weeks old. For instance, a dose of 10 mg/kg was administered IV using a 5% DMS0/90% Captisol (20% in water) solution or other pharmaceutically acceptable parenteral and oral formulations. Blood samples were collected at different intervals. Plasma samples were extracted and analyzed using an LC-MS/MS method. Similar protocols were used for the rats (Sprague Dawley rats) or dogs (beagles) PK studies; in the case of dogs PK studies, the number of animals per group was three.
(§4) PFK-065 was dosed at 10 mg/kg in male Balbc mice; PFK-095 was dosed at 10 mg/kg in male Sprague Dawley rats; and PFK-112 dosed at 6 mg/kg in male beagle dogs.

Data set [16] in a line: Cell permeability in MDR1-MDCK monolayers. The data set is classed as in vitro ADME. The following applies: dog, MDR1-MDCK cells, pH 7.4.
Excerpt: as §2

The nature of data set [17]: Pharmacokinetics in dogs. The class given is in vivo. The following applies: male beagle dogs. The method, then:
as §3, §4

In the case of `O=C(c1ccncc1)c1cc2c(ccc3ccccc32)[nH]1` [ACT-PFK-095, (3H-Benzo[e]indol-2-yl)-pyridin-4-yl-methanone], the IC50 in data set [1] came to 0.51 µM; in [2], 0.14 µM; in data set [3], 24.9 µM; in [4], 9.1 µM; in data set [5], 0.19 µM; in data set [6], 0.05 µM. Further, the IC50 is 0.95 µM in data set [7]; 0.94 µM in [8]; 0.21 µM in data set [9]; 4.65 µM in data set [10]; 5.5 µM in data set [11]; 0.45 µM in [12]. This compound gave an IC50 in [13] of 0.18 µM. In data set [14] (apical to basal), this compound came in with a Papp A→B at 2 h of 162 nm/s. The compound further displayed a Papp B→A at 2 h in [14] (basal to apical) of 89 nm/s. For the same compound, the Cmax in data set [15] (IV 10 mg/kg) is 16.932 µg/mL. In data set [15] (IV 10 mg/kg), the T1/2b was found to be 5.5 h. In [15] (IV 10 mg/kg), this compound returned a Vd of 2.5 L/kg. Besides, in data set [15] (oral bioavailability, PO 10 mg/kg), the “% F (from PO group)” value is listed as 38%. In data set [15] (rat, plasma, IV 10 mg/kg), this compound registered an AUC(0-inf) of 1.29 µg·h/mL.

For `Nc1ccc(C(=O)c2cc3c(ccc4ccccc43)[nH]2)cc1` [ACT-PFK-112, (4-Amino-phenyl)-(3H-benzo[e]indol-2-yl)-methanone], the Papp A→B at 2 h in data set [16] (apical to basal) amounted to 78 nm/s. In addition, the Papp B→A at 2 h in data set [16] (basal to apical) was determined as 173 nm/s. In data set [17] (IV 6 mg/kg), this compound gave a T1/2b of 5.8 h. In data set [17] (dog, plasma, IV 6 mg/kg), this compound displayed a total exposure AUC(0-inf) of 5.07 µg·h/mL, a Cmax of 5.07 µg/mL and a distribution volume (Vd) of 1.8 L/kg. For the same compound, the “% F (from PO group)” value in data set [17] (oral bioavailability, PO 24 mg/kg vs IV 6 mg/kg) came out at 95%.
